Where a name gives a salt, the structure may show the parent alone.
Experiment: solubility of TAT salt in water
Format: physicochemical
Conditions: 25° C.
Procedure: The reaction mixture containing the precipitated TAT salt is then cooled to about 5° C. to about 15° C. and stirred, then filtered. The TAT salt is then washed 44. It may be washed with deaerated aqueous acid, such as HCl (33%), and then optionally with deaerated ethanol or methanol to produce a wet cake material. The used acid can then be distilled and recycled (31, 30, 33). […] Using an agitated filter unit during the wash procedures can allow for a reduction of the wash volumes. Under such circumstances, using small amounts of cold (e.g., about 5° C.) water instead of the aqueous acid would be effective; cold water would be used because of lower solubility of the TAT salt in cold water versus, e.g., room temperature. For example, the solubility of TAT.4HCl in water at 25° C. is about 16 wt %.

solubility in water: about 16 wt %
SMILES: Cc1c(N)c(N)cc(N)c1N [TAT.4HCl, 2,3,5,6-tetraaminotoluene salt]
